Results as given in publication PMC7576608, “Mechanisms of telomerase inhibition by oxidized and therapeutic dNTPs” (Nature Communications, 2020).
Several values for one entry are separate records, joined by “and”; a condition that tells them apart may be missing. Equal entries are not always repeated.

Assays:
[1] = biological target: T1, telomerase (Homo sapiens, UniProt O14746); assay: Direct telomerase repeat addition assay with radiolabeled dNTPs: dNTP titration, repeat processivity R1/2; assay type: biochemical; set-up: made in house; anti-FLAG immunopurification, eluted with 3xFLAG peptide; conditions: for Processivity R 1/2: (TTAGGG)3 primer, remaining three natural dNTPs at cellular concentration
T1 sequence (O14746 whole entry): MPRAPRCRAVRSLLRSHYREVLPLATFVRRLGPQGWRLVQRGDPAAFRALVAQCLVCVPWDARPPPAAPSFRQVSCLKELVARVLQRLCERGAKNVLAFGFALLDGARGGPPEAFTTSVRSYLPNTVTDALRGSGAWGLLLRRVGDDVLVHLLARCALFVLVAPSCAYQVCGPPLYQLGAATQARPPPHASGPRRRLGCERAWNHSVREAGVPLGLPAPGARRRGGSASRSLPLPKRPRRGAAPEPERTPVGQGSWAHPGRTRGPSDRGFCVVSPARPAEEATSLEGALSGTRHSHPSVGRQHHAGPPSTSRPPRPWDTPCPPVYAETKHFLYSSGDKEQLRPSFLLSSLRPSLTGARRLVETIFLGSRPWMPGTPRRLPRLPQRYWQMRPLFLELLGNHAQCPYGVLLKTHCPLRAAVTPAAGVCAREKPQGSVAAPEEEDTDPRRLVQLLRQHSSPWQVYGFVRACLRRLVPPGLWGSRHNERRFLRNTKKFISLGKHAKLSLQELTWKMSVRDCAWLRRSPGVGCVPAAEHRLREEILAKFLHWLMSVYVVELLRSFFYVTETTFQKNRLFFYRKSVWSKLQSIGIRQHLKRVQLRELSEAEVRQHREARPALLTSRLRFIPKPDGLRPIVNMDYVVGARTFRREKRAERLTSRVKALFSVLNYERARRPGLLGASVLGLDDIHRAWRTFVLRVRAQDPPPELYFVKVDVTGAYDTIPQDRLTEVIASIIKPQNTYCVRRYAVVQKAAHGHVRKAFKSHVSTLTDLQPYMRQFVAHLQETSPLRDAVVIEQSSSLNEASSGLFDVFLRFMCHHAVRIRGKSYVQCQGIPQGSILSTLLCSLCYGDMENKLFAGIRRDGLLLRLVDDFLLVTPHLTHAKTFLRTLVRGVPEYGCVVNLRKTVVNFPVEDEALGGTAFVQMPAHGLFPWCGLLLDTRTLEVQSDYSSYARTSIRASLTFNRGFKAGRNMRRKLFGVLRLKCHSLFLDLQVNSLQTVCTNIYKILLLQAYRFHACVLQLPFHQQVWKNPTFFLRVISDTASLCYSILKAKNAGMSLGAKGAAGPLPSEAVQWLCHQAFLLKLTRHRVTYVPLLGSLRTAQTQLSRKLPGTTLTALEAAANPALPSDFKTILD
Protocol: This preparation, termed super telomerase, has kinetic properties similar to endogenous telomerase (Supplementary Fig. 1)[29]–[31]. […] Repeat processivity was measured using the convention of calculating the number of repeats synthesized before half of the DNA substrates dissociate from telomerase[33] (Supplementary Fig. 2). 8-oxo-dGTP served as a control since it is an established telomerase chain terminator[12].
Fig. 2 Oxidized and therapeutic dNTPs inhibit telomerase processivity. […] The loading control (*) was a ^32P-end labeled 18-mer oligonucleotide. Numbers on the left indicate the number of added repeats; letters on the right indicate template residue. Images are representative of three independent experiments.
The telomerase assay was as described. […] Reactions containing the modified dNTPs (Trilink Biotechnologies) substituted for their natural dNTP analog are indicated in the figure legends. The reactions were started by the addition of 3 μl (~35 fmol) of immunopurified telomerase eluent, incubated at 37 °C for 1 h, then terminated with 2 μl of […] EDTA and heat inactivated at 65 °C for 20 min. ^32P-end labeled 18-mer loading control (8 fmol) was added to the terminated reactions before purification with an Illustra Microspin G-25 column (GE Healthcare). An equal volume of loading buffer (94% formamide, 0.1× TBE, 0.1% bromophenol blue, 0.1% xylene cyanol) was added to the reaction eluent from the G-25 spin column. The samples were heat denatured for 10 min at 100 °C and loaded onto a 14% denaturing polyacrylamide gel (7 M urea, 1× TBE) and electrophoresed for 90 min at constant 38 W. Samples were imaged using a Typhoon phosphorimager (GE Healthcare).
The processivity was calculated as described[40],[67]. Repeat processivity from the direct telomerase extension assays was calculated as R1/2 (equivalent to the half-time for decay in an exponential time course), which represents the median length of DNA product formed, expressed in terms of number of telomere repeats. First, the total volume counts for each product band extend by one or more telomere repeats were obtained using Image Quant TL. The volume counts were then normalized by dividing by the number of radiolabeled guanosines incorporated into the extended products based on the number of repeats added, termed corrected volume (corr vol). The “percent left behind” (%LB) was calculated for each product band by summing the counts for that product band and for every product band below (shorter products), divided by the total counts for the lane, and then multiplied by 100. The natural log of (100−%LB) was calculated and then plotted vs. repeat number for each product length. A linear regression line was fit to the data to determine the slope of the line. The R1/2 value was calculated by dividing −ln(2) by the slope of each fitted line (R1/2 = −ln(2)/slope).
Number of Repeats Number of Repeats Number of Repeats Number of Repeats
Supplementary Fig 2.Telomerase dNTP titrations and processivity calculations. Telomerase reactions were conducted with (TTAGGG) 3 primer 1 and cellular-concentration dNTPs except that the […]
The loading control (LC) was a 32P-end labeled 18-mer. Numbers on the left indicate the number of added repeats. (d) Processivity was calculated as R1/2 (see Methods). (e) The natural log of (100-%LB) was plotted vs repeat number. A straight line was fit to the data and the R1/2 was calculated by dividing –ln(2) by the slope of each line. Plots shown from one experiment. Images ( a-c) and plots ( e) are representative of, and data are mean + s. d. (d) from, three independent experiments. Source data are provided as a Source Data file.
(1 picture or pasted object on this page, not shown here)

[2] = biological target: T1, telomerase; assay: Telomerase extension after insertion of modified dNTP (percent of product terminated at each template position); assay type: biochemical; set-up: made in house; anti-FLAG immunopurification, eluted with 3xFLAG peptide; conditions: Fig 4a, Primer 3, 50 μM each dTTP, dGTP and dATP or 2-OH-dATP, Mean
Protocol: Direct telomerase assays were conducted with 5 nM ^32P-end labeled primer a and d Primer 3 (AGGGTT)3, b Primer 1 (TTAGGG)3, or c Primer 2 […]. […] Products were separated on denaturing gels. Letters on the y-axis of the graph indicate the template base; P indicates unextended 18-mer primer. Graphs represent percent of product terminated at each template position as a function of total products. Images are representative of, and data are the mean ± s.d. from, three independent experiments. Source data are provided as a Source Date file.
The reactions were started by the addition of 3 μl of immunopurified telomerase eluent, incubated at 37 °C for 1 h, then terminated with 2 μl of […] and heat inactivated at 65 °C for 20 min. An equal volume of loading buffer (94% formamide, 0.1× TBE, 0.1% bromophenol blue, 0.1% xylene cyanol) was added to the reaction eluent. The samples were heat denatured for 10 min at 100 °C and loaded onto a 14% denaturing acrylamide gel (7 M urea, 1× TBE) and electrophoresed for 90 min at constant 38 W. Samples were imaged using a Typhoon phosphorimager (GE Healthcare). Percent primer extension was calculated with ImageQuant TL 8.2 by measuring the intensity of each product band and dividing by the total radioactivity in the lane or total products, as indicated in the figure legends.

[3] = 5μM titrated dNTP, telomere repeat 1
[4] = 25μM titrated dNTP, telomere repeat 1
[5] = indicated dNTP at 0.5 μM, n1-n3

Q: For `Nc1ncnc2c1ncn2C1CC(O)C(COP(=O)(O)OP(=O)(O)OP(=O)(O)O)O1` (centres unmarked) [dATP], which “YIntercept (line, best-fit value) of ln(100-%LB) vs # telomere repeats” value ([1]; 0.5μM titrated dNTP) is on record?
A: 4.31 and 3.25 and 4.01

Q: What about the “YIntercept (line, best-fit value) of ln(100-%LB) vs # telomere repeats” value ([1]; 1μM titrated dNTP) of the same molecule?
A: 4.44 and 2.47 and 4.49

Q: What about the “ln(100-%LB)” value ([1]; 1μM titrated dNTP, telomere repeat 3) of the same molecule?
A: 2.47 and 1.35 and 2.09

Q: What about the “YIntercept (line, best-fit value) of ln(100-%LB) vs # telomere repeats” value ([1]; 5μM titrated dNTP) of the same molecule?
A: 4.00 and 3.98 and 2.64

Q: And the “ln(100-%LB)” value [1, 3]?
A: 3.97 and 2.20

Q: And the “ln(100-%LB)” value ([1]; 5μM titrated dNTP, telomere repeat 2)?
A: 3.54 and 1.95

Q: And the “ln(100-%LB)” value ([1]; 5μM titrated dNTP, telomere repeat 3)?
A: 3.04 and 3.01 and 1.68

Q: And the “YIntercept (line, best-fit value) of ln(100-%LB) vs # telomere repeats” value ([1]; 25μM titrated dNTP)?
A: 3.73 and 2.10

Q: What about the “ln(100-%LB)” value [1, 4] of the same molecule?
A: 3.90 and 2.05

Q: And the “Processivity R 1/2” value ([1]; indicated dNTP at 0.5 μM, Mean)?
A: 1.28

Q: And the “Processivity R 1/2” value [1, 5]?
A: 0.99 and 1.34 and 1.51

Q: And the “Processivity R 1/2” value ([1]; indicated dNTP at 1 μM, Mean)?
A: 1.47

Q: What about the “Processivity R 1/2” value ([1]; indicated dNTP at 1 μM, n1-n3) of the same molecule?
A: 1.33 and 1.42 and 1.67

Q: And the “Processivity R 1/2” value ([1]; indicated dNTP at 5 μM, Mean)?
A: 2.10

Q: And the “Processivity R 1/2” value ([1]; indicated dNTP at 5 μM, n1-n3)?
A: 1.66 and 2.20 and 2.43

Q: What about the “Processivity R 1/2” value ([1]; indicated dNTP at 24 μM, Mean) of the same molecule?
A: 2.21

Q: What about the “Processivity R 1/2” value ([1]; indicated dNTP at 24 μM, n1-n3) of the same molecule?
A: 1.90 and 2.36 and 2.37

Q: What about the “Percent of Total Product” value ([2]; terminated at rA3) of the same molecule?
A: 2.35%

Q: What about the “Percent of Total Product” value ([2]; terminated at rA4) of the same molecule?
A: 1.56%

Q: And the “Percent of Total Product” value ([2]; terminated at rC1)?
A: 1.47%

Q: And the “Percent of Total Product” value ([2]; terminated at rC2)?
A: 0.77%

Q: What about the “Percent of Total Product” value ([2]; terminated at rC6) of the same molecule?
A: 8.96%

Q: And the “Percent of Total Product” value ([2]; terminated at rU5 (first))?
A: 4.92%

Q: And the “Percent of Total Product” value ([2]; terminated at rU5 (second, after translocation))?
A: 0.73%

Q: Which results are given for `Nc1ncnc2c1[nH]c(=O)n2C1CC(O)C(COP(=O)(O)OP(=O)(O)OP(=O)(O)O)O1` (centres unmarked) [8-oxo-dATP]?
A: Processivity R 1/2 ([1]; indicated dNTP at 0.5 μM, Mean): 0; Processivity R 1/2 [1, 5]: 0; Processivity R 1/2 ([1]; indicated dNTP at 1 μM, Mean): 0; Processivity R 1/2 ([1]; indicated dNTP at 1 μM, n1-n3): 0; Processivity R 1/2 ([1]; indicated dNTP at 5 μM, Mean): 0; Processivity R 1/2 ([1]; indicated dNTP at 5 μM, n1-n3): 0; Processivity R 1/2 ([1]; indicated dNTP at 24 μM, Mean): 0; Processivity R 1/2 ([1]; indicated dNTP at 24 μM, n1-n3): 0

Q: `O=c1[nH]cnc2c1ncn2C1CCC(COP(=O)(O)OP(=O)(O)OP(=O)(O)O)O1` (centres unmarked) [ddITP] was tested. Which “Processivity R 1/2” value ([1]; indicated dNTP at 0.5 μM, Mean) did it give?
A: 0

Q: What about the “Processivity R 1/2” value [1, 5] of the same molecule?
A: 0

Q: What about the “Processivity R 1/2” value ([1]; indicated dNTP at 1 μM, Mean) of the same molecule?
A: 0

Q: And the “Processivity R 1/2” value ([1]; indicated dNTP at 1 μM, n1-n3)?
A: 0

Q: And the “Processivity R 1/2” value ([1]; indicated dNTP at 5 μM, Mean)?
A: 0

Q: And the “Processivity R 1/2” value ([1]; indicated dNTP at 5 μM, n1-n3)?
A: 0

Q: And the “Processivity R 1/2” value ([1]; indicated dNTP at 24 μM, Mean)?
A: 0

Q: And the “Processivity R 1/2” value ([1]; indicated dNTP at 24 μM, n1-n3)?
A: 0

Q: How did the “Processivity R 1/2” value ([1]; indicated dNTP at 0.5 μM, Mean) turn out when `Nc1nc2c([nH]c(=O)n2C2CC(O)C(COP(=O)(O)OP(=O)(O)OP(=O)(O)O)O2)c(=O)[nH]1` (centres unmarked) [8-oxo-dGTP] was run?
A: 0

Q: What about the “Processivity R 1/2” value [1, 5] of the same molecule?
A: 0

Q: And the “Processivity R 1/2” value ([1]; indicated dNTP at 1 μM, Mean)?
A: 0

Q: What about the “Processivity R 1/2” value ([1]; indicated dNTP at 1 μM, n1-n3) of the same molecule?
A: 0

Q: And the “Processivity R 1/2” value ([1]; indicated dNTP at 5 μM, Mean)?
A: 0

Q: And the “Processivity R 1/2” value ([1]; indicated dNTP at 5 μM, n1-n3)?
A: 0

Q: And the “Processivity R 1/2” value ([1]; indicated dNTP at 24 μM, Mean)?
A: 0

Q: What about the “Processivity R 1/2” value ([1]; indicated dNTP at 24 μM, n1-n3) of the same molecule?
A: 0

Q: Which “YIntercept (line, best-fit value) of ln(100-%LB) vs # telomere repeats” value ([1]; 0.5μM titrated dNTP) does the source give for `Cc1cn(C2CC(O)C(COP(=O)(O)OP(=O)(O)OP(=O)(O)O)O2)c(=O)[nH]c1=O` (centres unmarked) [dTTP] here?
A: 4.06 and 3.53 and 2.25

Q: And the “YIntercept (line, best-fit value) of ln(100-%LB) vs # telomere repeats” value ([1]; 1μM titrated dNTP)?
A: 3.61 and 3.41 and 1.82

Q: What about the “ln(100-%LB)” value ([1]; 1μM titrated dNTP, telomere repeat 1) of the same molecule?
A: 3.41 and 3.35 and 1.72

Q: What about the “ln(100-%LB)” value [1, 3] of the same molecule?
A: 1.67 and 3.31 and 3.28

Q: What about the “YIntercept (line, best-fit value) of ln(100-%LB) vs # telomere repeats” value ([1]; 25μM titrated dNTP) of the same molecule?
A: 3.33 and 3.39 and 1.96

Q: What about the “ln(100-%LB)” value [1, 4] of the same molecule?
A: 3.18 and 3.21 and 2.13

Q: What about the “ln(100-%LB)” value ([1]; 25μM titrated dNTP, telomere repeat 2) of the same molecule?
A: 2.32 and 2.36 and 1.43

Q: And the “ln(100-%LB)” value ([1]; 25μM titrated dNTP, telomere repeat 3)?
A: 1.64 and 1.63 and 0.90

Q: What about the “Processivity R 1/2” value ([1]; indicated dNTP at 0.5 μM, Mean) of the same molecule?
A: 1.28

Q: What about the “Processivity R 1/2” value [1, 5] of the same molecule?
A: 1.27 and 1.42 and 1.15

Q: What about the “Processivity R 1/2” value ([1]; indicated dNTP at 1 μM, Mean) of the same molecule?
A: 1.90

Q: What about the “Processivity R 1/2” value ([1]; indicated dNTP at 1 μM, n1-n3) of the same molecule?
A: 1.45 and 1.97 and 2.27

Q: And the “Processivity R 1/2” value ([1]; indicated dNTP at 5 μM, Mean)?
A: 2.06

Q: What about the “Processivity R 1/2” value ([1]; indicated dNTP at 5 μM, n1-n3) of the same molecule?
A: 1.59 and 1.96 and 2.62

Q: And the “Processivity R 1/2” value ([1]; indicated dNTP at 24 μM, Mean)?
A: 1.95

Q: Which results are given for `Cc1cn([C@H]2C[C@H](N=[N+]=[N-])[C@@H](CO[P@](=O)(O)O[P@](=O)(O)OP(=O)(O)O)O2)c(=O)[nH]c1=O` [AZT-TP]?
A: Processivity R 1/2 ([1]; indicated dNTP at 0.5 μM, Mean): 0; Processivity R 1/2 [1, 5]: 0; Processivity R 1/2 ([1]; indicated dNTP at 1 μM, Mean): 0; Processivity R 1/2 ([1]; indicated dNTP at 1 μM, n1-n3): 0; Processivity R 1/2 ([1]; indicated dNTP at 5 μM, Mean): 0; Processivity R 1/2 ([1]; indicated dNTP at 5 μM, n1-n3): 0; Processivity R 1/2 ([1]; indicated dNTP at 24 μM, Mean): 0; Processivity R 1/2 ([1]; indicated dNTP at 24 μM, n1-n3): 0
